Data taken from the NIST ThermoML archive (doi:10.1016/j.jct.2009.08.009).

Experiment: xn = mol fraction of the nth substance listed
Conditions: 101 kPa, Liquid; for viscosity: Capillary tube (Ostwald / Ubbelohde) method; for speed of sound: Sing-around technique in a fixed-path interferometer; for mass density: Vibrating tube method

CCCCCCCCCCO [decan-1-ol] + CCOCCOCCO
x2 = 0
Conditions | viscosity [mPa·s]
293.15 K | 13.04
298.15 K | 11.19
303.15 K | 9.066
308.15 K | 7.459

CCOCCOCCO [3,6-dioxa-1-octanol] + CCCCCCCCO
Conditions | mass density [kg/m3] | speed of sound [m/s] | viscosity [mPa·s]
293.15 K, x1 = 0.0518 | 832.339 | 1364.1 | 7.468
293.15 K, x1 = 0.1011 | 839.204 | 1363.5 | 6.913
293.15 K, x1 = 0.1625 | 848.155 | 1363.1 | 6.159
293.15 K, x1 = 0.1944 | 853.018 | 1363.7 | 5.913
293.15 K, x1 = 0.2538 | 862.076 | 1364.5 | 5.872
293.15 K, x1 = 0.3165 | 872.254 | 1365.7 | 5.104
293.15 K, x1 = 0.3685 | 880.933 | 1370.8 | 4.837
293.15 K, x1 = 0.4975 | 904.111 | 1377.4 | 4.361
293.15 K, x1 = 0.6048 | 925.139 | 1387.7 | 4.08
293.15 K, x1 = 0.7202 | 949.653 | 1399.5 | 3.846
293.15 K, x1 = 0.8165 | 971.878 | 1415.1 | 3.739
293.15 K, x1 = 0.9144 | 996.047 | 1349.4 | 3.66
293.15 K, x1 = 1 | – | – | 3.626
298.15 K, x1 = 0.0518 | 828.835 | 1347.1 | 6.198
298.15 K, x1 = 0.1011 | 835.659 | 1346.5 | 6.03
298.15 K, x1 = 0.1625 | 844.559 | 1346.3 | 5.405
298.15 K, x1 = 0.1944 | 849.396 | 1346.7 | 5.188
298.15 K, x1 = 0.2538 | 858.398 | 1347.6 | 4.799
298.15 K, x1 = 0.3165 | 868.522 | 1348.9 | 4.489
298.15 K, x1 = 0.3685 | 877.154 | 1354.1 | 4.279
298.15 K, x1 = 0.4975 | 900.211 | 1360.7 | 3.918
298.15 K, x1 = 0.6048 | 921.137 | 1370.9 | 3.612
298.15 K, x1 = 0.7202 | 945.535 | 1382.7 | 3.431
298.15 K, x1 = 0.8165 | 991.74 | 1398.2 | 3.328
298.15 K, x1 = 0.9144 | 938.234 | 1332.2 | 3.277
298.15 K, x1 = 1 | – | – | 3.278
303.15 K, x1 = 0.0518 | 825.317 | 1330.3 | 5.429
303.15 K, x1 = 0.1011 | 832.097 | 1329.8 | 5.005
303.15 K, x1 = 0.1625 | 840.951 | 1329.5 | 4.636
303.15 K, x1 = 0.1944 | 845.762 | 1329.6 | 4.404
303.15 K, x1 = 0.2538 | 854.713 | 1330.1 | 4.295
303.15 K, x1 = 0.3165 | 864.78 | 1330.9 | 3.845
303.15 K, x1 = 0.3685 | 873.364 | 1332.3 | 3.67
303.15 K, x1 = 0.4975 | 896.3 | 1337.5 | 3.396
303.15 K, x1 = 0.6048 | 917.122 | 1343.9 | 3.141
303.15 K, x1 = 0.7202 | 941.409 | 1354.3 | 3.045
303.15 K, x1 = 0.8165 | 963.444 | 1381.3 | 2.904
303.15 K, x1 = 0.9144 | 987.41 | 1315 | 2.848
303.15 K, x1 = 1 | – | – | 2.862
308.15 K, x1 = 0.0518 | 821.777 | 1313.7 | 4.542
308.15 K, x1 = 0.1011 | 828.522 | 1313.2 | 4.219
308.15 K, x1 = 0.1625 | 837.324 | 1312.9 | 3.897
308.15 K, x1 = 0.1944 | 842.106 | 1312.9 | 3.781
308.15 K, x1 = 0.2538 | 851.006 | 1313.5 | 3.548
308.15 K, x1 = 0.3165 | 861.019 | 1314.5 | 3.327
308.15 K, x1 = 0.3685 | 869.558 | 1315.7 | 3.169
308.15 K, x1 = 0.4975 | 892.371 | 1320.9 | 2.928
308.15 K, x1 = 0.6048 | 913.092 | 1327.4 | 2.721
308.15 K, x1 = 0.7202 | 937.267 | 1337.7 | 2.6
308.15 K, x1 = 0.8165 | 959.204 | 1349.3 | 2.532
308.15 K, x1 = 0.9144 | 983.069 | 1364.5 | 2.493
308.15 K, x1 = 1 | – | – | 2.507
